The values that follow come from EP2891655A1, “Anilides-alkylthioethers as ACAT inhibitors for the treatment de dermatological diseases” (PIERRE FABRE MEDICAMENT, priority 2011, dated 2012).

SMILES strings stand for the structures.

Data set [1] relates to ACAT. Description: ACAT activity, rat liver microsomes (method of Chautan et al.). It counts as biochemical. Particulars: radiolabelled precursor, cholesteryl-oléate formed quantified, read-out: microsomes CI50. The text has this: (§1) Les expérimentations utilisent la méthode de Chautan M. et coll., (Anal. Biochem. 1988) afin de déterminer l'activité ACAT. Les activités sont exprimées en concentrations inhibitrices à 50% (CI50), l'unité est le nM. Deux types de préparations enzymatiques ont été utilisés pour analyser l'activité putative des composés : microsomes hépatiques de rat et cellules humaines intactes HepG2. Les microsomes sont obtenus à partir de fractionnement subcellulaire utilisant une étape d'homogénéisation puis une étape d'ultracentrifugation. Le dosage de l'activité ACAT est réalisé par incubation des microsomes hépatiques ou des cellules avec le composé d'intérêt ainsi que le précurseur radiomarqué. La séparation du produit de la réaction à partir du milieu d'incubation acellulaire ou cellulaire est réalisée par élution sur colonne de silice; le cholesteryl-oléate formé est ensuite quantifié en radioanalyse.
On the technique in general: Microsomes from liver hold many membrane-bound enzymes, among them those of drug oxidation.

The subject of data set [2] is ACAT. Put plainly: ACAT activity, intact HepG2 cells (method of Chautan et al.). The class given is cell-based, humaines.
Excerpt: as §1

Data set [3] relates to ACAT. Put plainly: ACAT inhibition in vivo: plasma cholesterol in rats on a hypercholesterolemic diet. Conditions: oral route, 4 days of hypercholesterolemic diet with simultaneous treatment, plasma cholesterol on day 5 (colorimetric). The text has this:
Les rats sont soumis à un régime alimentaire hypercholestérolémique pendant 4 jours. Les animaux sont traités simultanément par voie orale avec les différentes molécules. Le cinquième jour les animaux sont euthanasiés et la variation des taux de cholestérol plasmatique circulant analysée par méthode colorimétrique. Les activités sont exprimées en doses efficaces à 50% (DE50), l'unité est le mg/kg.

Another data set deals with procollagène de type 1. Particulars: protein level and mRNA; cited from earlier work.
In another data set the test system is glandes sébacées. Particulars: primate, chronic treatment; cited from earlier work.
The mark [4] stands for this setting: intact human HepG2 cells; radiolabelled precursor, cholesteryl-oléate formed quantified; read-out: HepG2 CI50.
[5] abbreviates: read-out: HepG2 CI50; intact human HepG2 cells; radiolabelled precursor, cholesteryl-oléate formed quantified.

As to `CCCCCCCCCCCCSC(C)(C)C(=O)N1CCCCC1C(=O)Nc1cc(C)c(O)c(C)c1C` (stereo not shown) [Exemple 1, 1-(2-(dodécylthio)-2-méthylpropanoyl)-N-(4-hydroxy-2,3,5-triméthyl-phényl)pipéridine-2-carboxamide], the IC50 in the data set with ACAT [1] and in the data set on ACAT [2] (setting [4]) was 47 nM in each case. The “Etude in vivo chez le rat DE50” value in the data set with ACAT [3] was found to be 0.63 mg/kg.
For `CCCCCCCCCCCCSC(C)(C)C(=O)N1CCCC1C(=O)Nc1cc(C)c(O)c(C)c1C` (stereo not shown) [Exemple 2, 1-(2-(dodécylthio)-2-méthylpropanoyl)-N-(4-hydroxy-2,3,5-triméthyl-phényl)-pyrrolidine-2-carboxamide], the IC50 came to 81 nM with ACAT [1] and 48 nM in the data set with ACAT [2] (setting [4]). Also, the “Etude in vivo chez le rat DE50” value in the data set with ACAT [3] is on record as under 0.63 mg/kg.
For the compound `CCCCCCCCCCCCSC(C)(C)C(=O)N1CCC[C@H]1C(=O)Nc1cc(C)c(O)c(C)c1C` [Exemple 3, (S)-1-(2-(dodécylthio)-2-méthylpropanoyl)-N-(4-hydroxy-2,3,5-triméthyl-phényl)pyrrolidine-2-carboxamide], the figures for the IC50 with ACAT [1] and with ACAT [2] (setting [4]) were 18 nM and 34 nM, respectively. Also, the “Etude in vivo chez le rat DE50” value in the data set on ACAT [3] is reported as under 0.63 mg/kg.
Turning to `CCCCCCCCCCSC(C)(C)C(=O)N1CCC[C@H]1C(=O)Nc1cc(C)c(O)c(C)c1C` [Exemple 4, (S)-1-(2-(décylthio)-2-méthylpropanoyl)-N-(4-hydroxy-2,3,5-triméthyl-phényl)-pyrrolidine-2-carboxamide], the “Etude in vivo chez le rat DE50” value in the data set with ACAT [3] is recorded as 0.63 mg/kg.
On to `CCCCCCCCCCCCSC(C)(C)C(=O)N1CSC[C@H]1C(=O)Nc1cc(C)c(O)c(C)c1C` [Exemple 5, (R)-3-(2-(dodécylthio)-2-méthylpropanoyl)-N-(4-hydroxy-2,3,5-triméthyl-phényl)thiazolidine-4-carboxamide], for which the values for the IC50 in the data set with ACAT [1] and in the data set with ACAT [2] (setting [4]) were 34 nM and 39 nM, respectively. For the same compound, in the data set on ACAT [3], the “Etude in vivo chez le rat DE50” value is reported as under 0.63 mg/kg.
With `CCCCCCCCCCCCSC(C(=O)Nc1cc(C)c(O)c(C)c1C)c1ccsc1` (stereo not shown) [Exemple 6, 2-(dodécylthio)-N-(4-hydroxy-2,3,5-triméthylphényl)-2-(thiophén-3-yl)acétamide], the IC50 in the data set on ACAT [1] came to 71 nM; in the data set on ACAT [2] (setting [4]) it was 27 nM. Moreover, the “Etude in vivo chez le rat DE50” value with ACAT [3] is reported as 0.17 mg/kg.
With `CCCCCCCCCCCCSC(C(=O)Nc1c(C)c(C)c(N)c(C)c1C)c1ccsc1` (stereo not shown) [Exemple 7, chlorhydrate du N-(4-amino-2,3,5,6-tétraméthylphényl)-2-(dodécylthio)-2-(thiophén-3-yl)acétamide], the IC50 with ACAT [1] is 41 nM; in the data set on ACAT [2] (setting [5]), 93 nM. Also, the “Etude in vivo chez le rat DE50” value in the data set on ACAT [3] amounted to 0.16 mg/kg.
For `CCCCCCCCCCCCSC(C(=O)Nc1c(C)c(C)c(N)c(C)c1C)c1cccs1` (stereo not shown) [Exemple 8, chlorhydrate du N-(4-amino-2,3,5,6-tétraméthylphényl)-2-(dodécylthio)-2-(thiophén-2-yl)acétamide] the same measures were 69 nM, 38 nM and 0.26 mg/kg.
With `CSc1cc(C)nc(SC)c1NC(=O)CN1CCN(CCSc2nc3ccccc3[nH]2)CC1` [K-604], in the data set on procollagène de type 1, the “procollagène de type 1” value is given as “augmentation de procollagène de type 1”.
In the case of `CC(C)c1cccc(C(C)C)c1NC(=O)NCC1(c2ccc(N(C)C)cc2)CCCC1.Cl` [PD 132301-2], in the data set with glandes sébacées, the “effet secondaire sur les glandes sébacées” value is listed as “atrophie des glandes sébacées”.
With `CCCCCCCCN1CCc2c(C)c(CC(=O)O)c(C)c(NC(=O)C(C)(C)C)c21` [pactimibe], in the data set on procollagène de type 1, the “procollagène de type 1” value is given as “n'ont pas cette propriété”.
